Laboratory results reported in patent US20150283233A1, “Compositions and Methods for Enhancing Immune Responses” (Gencia Corporation, priority 2012, published 2015).

Test system: MHC I
Assay: MHC I western blot of orthotopic MiaPaca-2 pancreatic xenografts, with or without gemcitabine
Format: in vivo, BALB/c nude mouse
Details: gemcitabine only, 40 mg/kg every 3 days, orthotopic MiaPaca-2 tumors, FIG. 11
Experimental: MiaPaCa-2 tumor cells was maintained in vitro as monolayer culture in DMEM medium supplemented with 10% fetal bovine serum, 2.5% horse serum, 100 Um′ penicillin and 100 μg/ml streptomycin, and 2 mM L-glutamine at 37° C. in an atmosphere of 5% CO2 in air. The tumor cells were routinely subcultured twice weekly by trypsin-EDTA treatment. Cells in an exponential growth phase will be harvested and counted for tumor inoculation. Before orthotopic implantation, 5×10^6 MiaPaca-2 cells in 50 μl PBS mixed with 50 μl Matrigel were inoculated subcutaneously at the right flank of each BALB/c nude mouse. Upon subcutaneous tumor size reaching about 500 mm^3, tumors were collected for orthotopic implantation.
For orthotopic MiaPaca-2 xenografts, mice were anesthetized by intraperitoneal injection of pentobarbital sodium (50 mg/kg) before tumor inoculation. The abdominal skin was sterilized and laparotomy was performed to expose the pancreas. Each mouse was inoculated with a subcutaneous MiaPaca-2 tumor fragment (2-3 mm in diameter) in the subcapsular region of the pancreas for tumor development. The abdominal wall was closed using No. 6 suture and then sterilized with povidone iodine solution. The day of surgery was denoted as Day 0 (D0). The treatments with vehicle, gemcitabine only, PTD-TFAM only, and PTD-TFAM in combination with gemcitabine were started at 10 days post tumor fragment inoculation. […]

`Nc1ccn([C@@H]2O[C@H](CO)[C@@H](O)C2(F)F)c(=O)n1` [Gemcitabine] was tested, and the “MHC I expression” value was “decreased”.
